# Reference: patent US8048458B2, “Saponin and preservative compositions for reduction of protozoa” (Sartec Corporation, priority 2006, dated 2011)
# Test system: protozoa
# Experiment: In vitro treatment of washed rumen protozoa: cell count and Live/Dead stain, % killed
# Assay type: cell-based, rumen protozoa from a Holstein-Friesian cow
# Settings: Yucca 1000 ppm where + Y, 2 hours, 39° C.; for % Viable: Live/Dead BacLight Stain; for % Killed by Treatment: standardized to blank
# Experimental: Rumen contents were obtained from a rumen cannulated Holstein-Friesian cow 10 hours post-prandial. […] Sedimented protozoa were aspirated to fresh CBD and washed twice with warm CBD. Protozoa were resuspended in warm CBD.
# Crude yucca was diluted in water to the desired concentration. […] Ethoxyquin was diluted in absolute ethanol to obtain concentrations which correspond to field concentrations of 0.5 g, 1.0 g and 1.5 g.
# Experimental treatments were as follows:
# Individual treatment tubes were flushed with carbon dioxide prior to sealing and placement at 39° C. for 2 hours with occasional mixing by tube inversion.
# Total number of protozoa present in each treatment was determined on the formalin fixed preparation and on the corresponding sample the percentage of live protozoa as indicated by the Live/Dead® BacLight Stain was also determined.
# […] was determined by multiplying the percent of live protozoa by the total protozoa present in each treatment. […] The number of viable protozoa for each treatment was then subtracted from the number of viable protozoa present in the blank (control) treatment. The difference is the number killed by the corresponding treatment. The treatments were then standardized to the blank by calculating a percentage killed by treatment.
# [1] = EQ 51.6 ug in vitro (0.5 g/head in vivo)
# [2] = EQ 103 ug in vitro (1 g/head in vivo)
# [3] = EQ 154 ug in vitro (1.5 g/head in vivo)
compound,measurement,setting,value
"CCOc1ccc2c(c1)C(C)=CC(C)(C)N2 [EQ, 1,2-dihydro-6-ethoxy-2,2,4-trimethylquinoline]",# Live,[1],7.13E+04
same,% Killed by Treatment using Ethanol control as Baseline,[1],23%
same,Cell count,[1],8.80E+04
same,% Viable,[1],81%
same,% Killed by Treatment,[1],18%
same,# Live,[2],7.35E+04
same,% Killed by Treatment using Ethanol control as Baseline,[2],20%
same,Cell count,[2],9.30E+04
same,% Viable,[2],79%
same,% Killed by Treatment,[2],16%
same,# Live,[3],5.40E+04
same,% Killed by Treatment using Ethanol control as Baseline,[3],41%
same,Cell count,[3],9.00E+04
same,% Viable,[3],60%
same,% Killed by Treatment,[3],38%
